Data set [1] has as its target T1, human EphA2 (Homo sapiens, UniProt P29317).
T1 construct: purchased R&D systems 3035-A2
The data set can be described thus: SPR binding affinity (Biacore T200, CM5 chip). The note with it: 25 °C, HBS-P + 0.1% DMSO, 1:1 kinetics model. The protocol: (§1) All experiments were conducted using a Biacore T200 instrument (GE Healthcare Life Sciences) with a CM5 chip at 25 °C. His-tagged human EphA2 (R&D systems, catalog # 3035-A2, 56.9 kDa, 4.46 μM stock concentration) and mouse EphA2 (SinoBiological, cat.# 50586-M08H, 58 kDa, 8.6 μM stock concentration) were immobilized onto the CM5 chip. AJ201 (3328.8 Da, 10 mM stock concentration) and AJ210 (3072.5 Da, 10 mM stock concentration) were used as analyte to flow over the ligand immobilized surface. Flow Cell (FC) 1 was used as the reference for FC2, FC3 for FC4. Anti-His antibody (2 mg/ml stock concentration) was diluted (1:100 dilution, 0.02 mg/ml diluted concentration) in 10 mM sodium acetate buffer at pH 4.5 and immobilized on all FCs to a level of ~8000 to 11000 RU using the standard amine coupling chemistry. HBS-P (10 mM HEPES pH 7.4, 150 mM NaCl, 0.05% v/v surfactant P20) was used as the immobilization running buffer. Human EphA2 was diluted (1:5 dilution) in HBS-P captured onto FC2 to a level of ~750 RU. Mouse EphA2 was diluted (1:10 dilution) in HBS-P captured onto FC4 to a level of ~750 RU. HBS-P was used as the capture running buffer. The Rmax values assume 1:1 interaction mechanism. Overnight kinetics were performed for all analytes in the presence of HBS-P+0.1% DMSO. The flow rate of all analyte solutions was maintained at 50 μL/min. The contact and dissociation times used were 120s and 600s, respectively. Glycine solution (pH 1.5) was injected for 15 s for surface regeneration and fresh ligands were captured in the beginning of each injection cycle. Sensorgrams from the overnight kinetics was evaluated by using 1:1 kinetics model fitting.

Data set [2] deals with T2, mouse EphA2 (Mus musculus, UniProt Q03145).
T2 construct: purchased SinoBiological 50586-M08H
The data set can be described thus: SPR binding affinity (Biacore T200, CM5 chip). Conditions: 25 °C, HBS-P + 0.1% DMSO, 1:1 kinetics model. The protocol: as §1

Data set [3] can be described thus: Ex vivo biodistribution. Details: species or system NSG mice. The note with it: both sexes, NSG, mouse, in vivo, 50 uCi, total radioactivity. On the procedure: Animal studies were performed under Johns Hopkins University Animal Care and Use Committee (ACUC)-approved protocol (Principal investigator: Sridhar Nimmagadda, Ph.D. and Protocol number M021M175). Male and Female NSG mice (5-6 weeks old) were purchased from JHU immunocompromised core and used to establish xenografts by administering cells subcutaneously (top right flank, unless otherwise noted) to form various tumor models within 3-4 weeks. Following cell numbers were used: Panc1, AsPC1, BxPC3 (1 M), Hs766T and SU8686 (2 M), CFPAC and Panc1005 (5 M). Imaging or biodistribution studies (n = 3-5) were conducted on mice with tumor volumes of 100-200 mm^3. The Panc1 orthotopic tumor model was established by surgically implanting a 3-5 mm^3 section of Panc1 tumor xenograft directly onto the pancreas. The implanted tumors were allowed to grow and were ready for imaging after 10 days of implantation.
(§2) Mice with 100-200 mm^3 tumor volume were used for ex vivo biodistribution studies. For radiotracer pharmacokinetics and dosimetry studies, mice with Panc1 tumor xenograft received ~80 µCi (2.96 MBq) [^68Ga]AJ201 and were sacrificed at pre-determined time points (5, 30, 60, 90 and 120 min). All other mice were injected with ~50 µCi (1.85 MBq; 0.2 to 0.5 nmol) Ga-68 labeled radiotracer and were sacrificed at 60 min. The selected tissues were collected, weighed, counted, and their %ID/g values calculated for biodistribution analysis. For pharmacokinetics and dosimetry studies, selected tissues included blood, muscle, tumor, thymus, heart, lung, liver, pancreas, stomach, small intestine, large intestine, spleen, adrenals, kidney, bladder, femur, brain and tumor xenografts. For other studies, selected tissues were blood, muscle, tumor, heart, lung, liver, pancreas, small intestine, spleen, kidney.

Data set [4] in a line: Ex vivo biodistribution. The data set is classed as in vivo, mice. Conditions: mouse, in vivo, 50 uCi, total radioactivity. On the procedure: as §2
Details of data set [5]: species or system C57BL/6 mice. The note with it: mouse, in vivo. The protocol:
Male C57BL/6 mice (5-6 weeks old) were used to establish syngeneic tumor by administering KPC cells subcutaneously in top right flank. For this study, 0.5 million cells were inoculated subcutaneously into the upper flank of each animal. Tumor growth was closely monitored, and once tumors became palpable, their volumes were measured using a vernier caliper. Animals were then randomized into groups to ensure balanced baseline tumor sizes, with median volumes of approximately 60 mm^3 (PBS group median: 60 mm^3; radiotherapeutic group median: 57 mm^3). Following randomization, two subsequent doses of 0.5 µCi of [^225Ac]AJ210 were administered intravenously with the interval of 24 h. Similarly, saline was administered in the control group. Measurements of tumor volume and body weight were conducted in alternative days until the end of study. Blood was collected retro-orbitally at 3-, 7- and 28-days post radiotherapy injection and hematological parameter were assessed using SCIL Vet ABC Plus instrument.
Tissue blocks and slides of liver, kidneys and lungs were prepared by JHU histology core and staining was also carried out by the Core. Briefly, tissue samples were fixed in formalin for 24 h and rinsed with PBS and stored in PBS. These tissue samples were dehydrated through graded ethanol series, cleared in xylene, and embedded in paraffin. Sections (4-5 µm thick) were cut using a microtome and mounted on glass slides. The slides were deparaffinized in xylene, rehydrated through graded ethanol to distilled water, and stained with hematoxylin for 5 min. After rinsing in running water, sections were differentiated in 1% acid alcohol, blued in ammonia water, and counterstained with eosin for 1-2 min. Slides were dehydrated, cleared in xylene, and mounted with a coverslip using a permanent mounting medium. Images were captured under a brightfield microscope to evaluate tissue structure and histopathological features.

The koff is a measure of how fast the partners let go of each other. In general, kon refers to a measure of how fast the partners come together. One may read the tissue uptake as the percentage of the injected dose found per gram of tissue.

*1 amine or outer side, *2 acyl side, *3 side chain or, on linkers, in order; H or OH if unused. Where a SMILES comes first, the peptide text is derived from it. Bridges are numbered along the chain shown (N, C = ends). [ ]: non-standard residue; d: D form. The star is where a group is joined. DOTA = O=C(O)CN1CCN(CC(=O)O)CCN(CC(=O)*)CCN(CC(=O)O)CC1; TATA = O=C(CC[*:1])N1CN(C(=O)CC[*:2])CN(C(=O)CC[*:3])C1; NOTA = O=C(O)CN1CCN(CC(=O)O)CCN(CC(=O)*)CC1; Hyp = O=C(O)[C@@H]1C[C@@H](O)CN1; hArg = N=C(N)NCCCC[C@H](N)C(=O)O; PEG2 = NCCOCCOCCC(=O)O; Sar = CNCC(=O)O

T2 sequence (Q03145 26-535 limits assumed): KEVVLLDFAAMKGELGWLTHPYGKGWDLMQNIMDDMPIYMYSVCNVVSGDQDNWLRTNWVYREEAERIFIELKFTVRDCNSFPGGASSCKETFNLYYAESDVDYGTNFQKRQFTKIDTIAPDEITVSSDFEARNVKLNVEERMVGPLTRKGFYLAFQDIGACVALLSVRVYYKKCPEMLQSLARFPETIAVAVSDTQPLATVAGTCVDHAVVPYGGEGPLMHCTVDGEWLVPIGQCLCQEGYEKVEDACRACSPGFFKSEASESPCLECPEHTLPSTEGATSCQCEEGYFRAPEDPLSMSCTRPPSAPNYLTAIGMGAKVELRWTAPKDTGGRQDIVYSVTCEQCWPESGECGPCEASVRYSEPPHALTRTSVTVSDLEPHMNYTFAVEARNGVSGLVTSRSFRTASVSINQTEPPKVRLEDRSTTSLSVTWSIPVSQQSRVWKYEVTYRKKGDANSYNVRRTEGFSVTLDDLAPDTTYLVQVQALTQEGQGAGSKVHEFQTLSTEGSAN
T1 sequence (P29317 25-534 limits assumed): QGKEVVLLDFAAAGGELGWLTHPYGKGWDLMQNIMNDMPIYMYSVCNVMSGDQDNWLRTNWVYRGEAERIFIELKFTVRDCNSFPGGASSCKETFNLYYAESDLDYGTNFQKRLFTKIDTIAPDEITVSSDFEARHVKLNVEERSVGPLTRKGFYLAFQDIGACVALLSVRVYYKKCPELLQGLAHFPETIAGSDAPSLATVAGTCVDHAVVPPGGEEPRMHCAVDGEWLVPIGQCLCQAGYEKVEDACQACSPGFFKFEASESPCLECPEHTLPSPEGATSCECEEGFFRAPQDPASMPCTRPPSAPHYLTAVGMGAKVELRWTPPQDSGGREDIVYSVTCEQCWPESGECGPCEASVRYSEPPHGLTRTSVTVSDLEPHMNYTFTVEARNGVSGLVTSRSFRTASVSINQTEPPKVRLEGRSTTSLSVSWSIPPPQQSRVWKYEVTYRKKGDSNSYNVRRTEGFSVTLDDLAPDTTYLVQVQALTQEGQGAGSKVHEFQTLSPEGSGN

Take `CC(C)C[C@@H]1NC(=O)[C@@H]2CSCCC(=O)N3CN(CN(C3)C(=O)CCSC[C@H](NC(=O)[C@H](CC(=O)O)NC(=O)[C@H](CCCCNC(=N)N)NC(=O)[C@H](C)NC(=O)CNC(=O)CN(C)C(=O)CN(C)C(=O)CN(C)C(=O)[C@H](CCCNC(=N)N)NC(=O)CNC(=O)CCOCCOCCNC(=O)CN3CCN(CC(=O)O)CCN(CC(=O)O)CC3)C(=O)N3C[C@H](O)C[C@H]3C(=O)N[C@@H](CC(C)C)C(=O)N[C@@H](C(C)C)C(=O)N[C@@H](CC(N)=O)C(=O)N3CCC[C@H]3C(=O)N[C@@H](CC(C)C)C(=O)N2)C(=O)CCSC[C@@H](C(N)=O)NC(=O)[C@H](CCCCNC(=N)N)NC(=O)[C@H](Cc2c[nH]c3ccccc23)NC(=O)[C@@H](CC(=O)O)NC(=O)[C@@H]2CCCN2C(=O)[C@H](Cc2c[nH]cn2)NC1=O` [AJ201] ({NOTA-PEG2}-GR[Sar][Sar][Sar]GA[hArg]DC[Hyp]LVNPLCLHP[dD]W[hArg]C-NH2; linker 10-17-24 via TATA): in data set [1], the koff was 0.00133 s⁻¹ and the kon stood at 7.6e+06 M⁻¹ s⁻¹. In data set [2], the koff is 0.00302 s⁻¹ and the kon is 5.03e+06 M⁻¹ s⁻¹.
As for `CC(C)C[C@@H]1NC(=O)[C@@H]2CSCCC(=O)N3CN(CN(C3)C(=O)CCSC[C@H](NC(=O)[C@H](CC(=O)O)NC(=O)[C@H](CCCCNC(=N)N)NC(=O)[C@H](C)NC(=O)CNC(=O)CNC(=O)CNC(=O)CNC(=O)CNC(=O)CN3CCN(CC(=O)O)CCN(CC(=O)O)CCN(CC(=O)O)CC3)C(=O)N3C[C@H](O)C[C@H]3C(=O)N[C@@H](CC(C)C)C(=O)N[C@@H](C(C)C)C(=O)N[C@@H](CC(N)=O)C(=O)N3CCC[C@H]3C(=O)N[C@@H](CC(C)C)C(=O)N2)C(=O)CCSC[C@@H](C(N)=O)NC(=O)[C@H](CCCCNC(=N)N)NC(=O)[C@H](Cc2c[nH]c3ccccc23)NC(=O)[C@@H](CC(=O)O)NC(=O)[C@@H]2CCCN2C(=O)[C@H](Cc2c[nH]cn2)NC1=O` [[^68Ga]AJ210, metal not drawn] ({DOTA}-GGGGGA[hArg]DC[Hyp]LVNPLCLHP[dD]W[hArg]C-NH2; linker 9-16-23 via TATA), the tissue uptake at 1 h in data set [3] (Blood uptake) was found to be 0.96 ± 0.33 %ID/g; in data set [3] (Femur uptake), 0.38 ± 0.08 %ID/g; in data set [3] (Heart uptake), 0.84 ± 0.14 %ID/g; in data set [3] (Kidney uptake), 24.4 ± 9.98 %ID/g; in data set [3] (Liver uptake), 0.34 ± 0.06 %ID/g; in data set [3] (Lung uptake), 0.39 ± 0.08 %ID/g. Further, the tissue uptake at 1 h in data set [3] (Muscle uptake) amounted to 0.4 ± 0.16 %ID/g; in data set [3] (Pancreas uptake) it was 0.3 ± 0.08 %ID/g; in data set [3] (Small intestine uptake) it was 0.62 ± 0.22 %ID/g; in data set [3] (Spleen uptake) it was 0.74 ± 0.22 %ID/g; in data set [3] (Stomach uptake) it was 0.09 ± 0.03 %ID/g; in data set [3] (Tumor uptake) it was 3.72 ± 0.66 %ID/g. The tissue uptake at 1 h in data set [4] (Blood uptake) is 0.56 ± 0.14 %ID/g; in data set [4] (Femur uptake), 0.29 ± 0.07 %ID/g; in data set [4] (Heart uptake), 0.24 ± 0.05 %ID/g; in data set [4] (Kidney uptake) it was 59.9 ± 16.4 %ID/g; in data set [4] (Liver uptake) it was 0.26 ± 0.05 %ID/g; in data set [4] (Lung uptake), 0.57 ± 0.13 %ID/g. The tissue uptake at 1 h in data set [4] (Muscle uptake) amounted to 0.19 ± 0.04 %ID/g; in data set [4] (Pancreas uptake) it was 0.24 ± 0.06 %ID/g; in data set [4] (Small intestine uptake), 0.64 ± 0.47 %ID/g; in data set [4] (Spleen uptake) it was 0.35 ± 0.07 %ID/g; in data set [4] (Stomach uptake) it was 0.17 ± 0.07 %ID/g; in data set [4] (Tumor uptake) it was 1.06 ± 0.25 %ID/g. For the same compound, the tissue to tissue ratio at 1 h in data set [3] (Tumor/Muscle ratio) turned out to be 10.3 ± 4.01; in data set [3] (Tumor/Pancreas ratio), 13.1 ± 4.11; in data set [3] (Tumor/blood ratio), 4.09 ± 0.97; in data set [4] (Tumor/Muscle ratio), 5.61 ± 0.69; in data set [4] (Tumor/Pancreas ratio) it was 4.65 ± 1.46; in data set [4] (Tumor/blood ratio) it was 1.94 ± 0.44.
In the case of `CC(C)C[C@@H]1NC(=O)[C@@H]2CSCCC(=O)N3CN(CN(C3)C(=O)CCSC[C@H](NC(=O)[C@H](CC(=O)O)NC(=O)[C@H](CCCCNC(=N)N)NC(=O)[C@H](C)NC(=O)CNC(=O)CNC(=O)CNC(=O)CNC(=O)CNC(=O)CN3CCN(CC(=O)O)CCN(CC(=O)O)CCN(CC(=O)O)CC3)C(=O)N3C[C@H](O)C[C@H]3C(=O)N[C@@H](CC(C)C)C(=O)N[C@@H](C(C)C)C(=O)N[C@@H](CC(N)=O)C(=O)N3CCC[C@H]3C(=O)N[C@@H](CC(C)C)C(=O)N2)C(=O)CCSC[C@@H](C(N)=O)NC(=O)[C@H](CCCCNC(=N)N)NC(=O)[C@H](Cc2c[nH]c3ccccc23)NC(=O)[C@@H](CC(=O)O)NC(=O)[C@@H]2CCCN2C(=O)[C@H](Cc2c[nH]cn2)NC1=O` [[^225Ac]AJ210, metal not drawn] ({DOTA}-GGGGGA[hArg]DC[Hyp]LVNPLCLHP[dD]W[hArg]C-NH2; linker 9-16-23 via TATA), in data set [5], the “H&E histology of kidney” value is recorded as “no significant pathological changes”; the “H&E histology of liver” value is on record as “no significant pathological changes”; the “H&E histology of lungs” value is on record as “no significant pathological changes”; the “H&E staining of lung, liver and kidney sections” value is listed as “no visible histological abnormalities”.
